Entries after “also recorded” stand apart in the source; their conditions may differ. Like-named read-outs stand apart in the source and are kept apart here. Values belong to the compound of their own block, whether it stands above or below them.
How the values were obtained:
TSPO [1] = molecular target: T1, TSPO (Rattus norvegicus, UniProt P16257); test: Compartmental binding assay in heavy and light fractions of C6 cell lysate; set-up: from tissue; host or cells: C6 glioma tumour and normal brain / other tissues of living rats
Excerpt: In order to fully characterize TSPO expression profile in the healthy tissues and C6 cells, this example includes subcellular studies. The present inventors separated two fractions of tissue and C6 cell lysates based on the density difference. […] Based on these two fractions, we performed western blot to determine TSPO expression profile in a variety of healthy tissues and C6 cell lysates. […] Thus, we evaluated the binding potential of VUIIS1008 in different fractions.

DiFi human CRC cells = test: Immunoblotting of markers in DiFi cells (WT KRAS) after 24 hr drug exposure; assay type: cell-based
Procedure: In these studies, cultured cells were exposed to drug for 24 hr, harvested, and the protein levels of various markers were assayed by immunoblotting.

colorectal cancer (CRC) = test: In vivo combination of PBR06 with Cetuximab in WT and mutant KRAS CRC cohorts; set-up: species or system mice
Excerpt: This synergism is shown with both wild type (WT) and mutant KRAS colorectal cancer (CRC) cohorts (mice).

TSPO [2] = molecular target: T1, TSPO; test: Radioligand displacement of [3H]PK 11195 in C6 glioma cell / tumor lysate; assay type: binding; set-up: from tissue; host or cells: C6 glioma tumour and normal brain / other tissues of living rats; settings: for binding affinity: whole tumor lysate; for binding affinity (in words): tumor lysate / C6 cell lysate
Procedure: Given our focus of targeting TSPO expressed in tumors, affinity assays will be conducted in whole and fractionated tumor lysate.
In this Example Glioma-bearing rats were imaged with [^18F]PBR06 in a microPET system. Dynamic acquisitions were acquired simultaneously upon injection of 70-100 MBq/0.2 mL [^18F]PBR06. Over the course of scanning, arterial blood was collected to derive the input function, with HPLC radiometabolite analysis performed on selected samples for arterial input function correction. Compartmental modeling of the PET data was performed using the corrected arterial input function. Specific tumor cell binding of PBR06 was evaluated by radioligand displacement of [^3H]PK 11195 with PBR06 in vitro and by displacement of [^18F]PBR06 with excess PBR06 in vivo. Immediately following imaging, tumor tissue and adjacent healthy brain were harvested for assay of TSPO protein levels by western blotting and immunohistochemistry.
Radioligand displacement of the high-affinity isoquinoline carboxamide TSPO ligand [^3H]PK 11195 was used to evaluate the specific binding of the non-radioactive analogue PBR06 in C6 glioma cell line homogenates in vitro (FIG. 10). […]

[3] = test system: HCT116 p53−/− human CRC cells; test: Immunoblotting of markers in HCT116 p53−/− cells (mutant KRAS) after 24 h drug exposure; assay type: cell-based
Procedure: In these studies, HCT116 p53−/− human CRC cells were exposed to drug for 24 h, harvested, and the protein levels of various markers were assayed by immunoblotting.

LIM 2405 human CRC cells = test: Immunoblotting of markers in LIM 2405 cells (mutant B-RAF) after 24 h drug exposure; assay type: cell-based
Procedure: In these studies, LIM 2405 human CRC cells were exposed to drug for 24 h, harvested, and the protein levels of various markers were assayed by immunoblotting.

nuclear TSPO = test: Fractional (nuclear) displacement assay against [3H]PK 11195; settings: fractional nuclear binding assay, displacement of [3H]PK 11195
Procedure: The characterization strategy can begin with a high-throughput fractional displacement assay developed in our laboratory (FIG. 8). This assay capitalizes upon the fact that PK 11195 binds nuclear and mitochondrial TSPO. Fractionated tumor lysate material containing an equivalent distribution of nuclear and mitochondrial TSPO (32) is incubated with [^3H]PK 11195 and candidate ligands. After incubation, protein is collected by centrifugation and microspotted in triplicate into high-density arrays (˜1 uL). The resultant radioligand displacement of each assay is quantified using a high-resolution digital autoradiography imaging system (BiospaceLab).

TSPO [4] = molecular target: T1, TSPO; test: Dynamic microPET of [18F]VUIIS-1008 in C6 glioma-bearing rats, with compartmental modeling and in vivo displacement; set-up: from tissue; host or cells: C6 glioma tumour and normal brain / other tissues of living rats; settings: for VT (calculated): mean ± SE; for tracer distribution tumor vs normal brain (in words): C6 glioma
Procedure: Dynamic microPET imaging can be performed as in tumor-bearing and non-tumor-bearing rats. […] […] For displacement studies, ‘cold’ analog (10 mg/kg) are injected via jugular catheter 30 min after radiotracer administration. Prior to PET scanning, tumors are localized in tumor-bearing rats using MRI, including T2-weighted and diffusion-weighted scans. For longitudinal studies, tumor volumes are measured using a three-dimensional, T2-weighted fast spin-echo sequence on a Varian 9.4 T horizontal bore imaging system.
A 3-compartment, 4-rate constant kinetic model can be used to characterize [^18F]PBR06 pharmacokinetics. […] These rate constants can be used to calculate the total volume of distribution (VT) in tissues of interest. Modeling will be carried out for whole brain (excluding tumor) and tumor by fitting time-activity curves (TACs) of each region.
Before PET imaging with ^18F-VUIIS1008, brain tumors were localized with T2-weighted MRI. […] After the initial spike in radioactivity consistent with tracer injection, ^18F-VUIIS1008 rapidly cleared from the plasma. Imaging-matched brains were processed for staining and immunohistochemistry. Using standard hematoxylin and eosin staining to localize the tumor, the present inventors discovered that TSPO expression was significant higher in tumor than in the adjacent healthy brain.
In order to fully evaluate the novel performance of ^18F-VUIIS1008, we have also determined ^18F-VUIIS 1008 pharmacodynamics with arterial input function.

TSPO [5] = molecular target: T1, TSPO; test: In vivo PET evaluation of [18F]VUIIS-0005 in C6 glioma; set-up: from tissue; host or cells: C6 glioma tumour and normal brain / other tissues of living rats
Procedure: Dynamic microPET imaging can be performed as in tumor-bearing and non-tumor-bearing rats. […] Dynamic images (120 min) are collected, followed by CT for attenuation correction and cross-platform registration. For displacement studies, ‘cold’ analog (10 mg/kg) are injected via jugular catheter 30 min after radiotracer administration. Prior to PET scanning, tumors are localized in tumor-bearing rats using MRI, including T2-weighted and diffusion-weighted scans. For longitudinal studies, tumor volumes are measured using a three-dimensional, T2-weighted fast spin-echo sequence on a Varian 9.4 T horizontal bore imaging system.

TSPO [6] = molecular target: T2, TSPO (Mus musculus, UniProt P50637); test: TSPO-PET with 18F-VUIIS1008 in Lrig1-CreERT2;Apcfl/+ mouse model of colorectal cancer; assay type: in vivo
T2 construct: from tissue; host or cells: colon tumours (Lrig1-CreERT2;Apcfl/+ mice) and pancreatic tumours (Ptf1a-cre;LSL-KrasG12D;Tgfbr2fl/fl mice) in living mice
Procedure: All studies were conducted in accordance with federal and institutional guidelines. Lrig1-CreERT2/+mice (35) were crossed to Apcfl/+mice to generate Lrig1-CreERT2/+; Apcfl/+mice. Six to eight week old mice were injected with 2 mg tamoxifen (Sigma Aldrich) intraperitoneally for three consecutive days to induce tumor formation. Mice were imaged approximately 100 days after injection of tamoxifen and then sacrificed
Colonoscopy (KARL STORZ-SCB Endoscope System) was performed monthly beginning two months after tamoxifen induction. Mice are anesthetized and immobilized using 2% isofluorane anesthesia in 100% oxygen at 2 L/min. Tumor formation within a single mouse was tracked over time. Upon visual detection of distal colon tumors mice were designated for PET imaging.
PET imaging was performed using a dedicated small animal PET scanner (Concorde Microsystems Focus 220) as described. Briefly, mice were maintained under 2% isofluorane anesthesia in 100% oxygen at 2 L/min and kept warm via a circulating water heating pad during the PET scan. Animals were administered 7.4-9.3 MBq of [^18F]-VUIIS1008 intravenously and allowed free access to food and water during a 50 minute uptake period and a 20 minute PET acquisition. Scans were reconstructed using OSEM3D/MAP.

[7] = C6 glioma cell lysate / tumor lysate, read-out: IC50, displacement of [3H]PK 11195
[8] = PBR06 single agent, increasing concentrations, 24 h
[9] = 1-tissue model, tumor, mean (SE in next line)

SMILES: COc1ccc(OC)c(CN(C(=O)CF)c2ccccc2Oc2ccccc2)c1 [PBR06]
binding affinity in heavy (nuclei) and light (mitochondria) fractions (in words) (TSPO [1]): bind to the light fraction selectively with a high binding affinity
p27 levels (cell cycle arrest) (DiFi human CRC cells; PBR06 single agent 10 nM, 24 hr): significantly elevated p27
pERK levels (DiFi human CRC cells; PBR06 single agent, increasing concentrations 10 nM-10 uM, 24 hr): modestly elevated levels of pERK
enhancement in the efficacy of C225 by combination with TSPO ligand (DiFi human CRC cells; WT KRAS CRC cell line): approximately 10 fold
p27 levels (cell cycle arrest) (DiFi human CRC cells; lowest dosage of C225 (+) combined with all dosages of PBR06): significantly elevated levels of p27 could be achieved
effect in combination with Cetuximab (in words) (colorectal cancer (CRC); WT and mutant KRAS CRC cohorts (mice)): in vivo synergistic effect
tolerability (in words) (colorectal cancer (CRC); mice): well tolerated among the test subjects
IC50 (TSPO [2]): ~12.6 nM
IC50 (TSPO [2]; [7]): 12 nM
binding affinity (TSPO [2]): ~12 nM
cleaved caspase 3 (apoptosis) ([3]; C225 combined with all but the lowest concentration of PBR06): significant levels of cleaved caspase 3 were induced
pERK levels ([3]; PBR06 in combination with elevated concentrations of C225): pERK could be fully inhibited at elevated concentrations of C225 with PBR06
pERK levels [3, 8]: modestly elevated levels of pERK
p27 levels (cell cycle arrest) ([3]; lowest concentration of C225 combined with PBR06 at all concentrations): resulted in elevated p27
p21 induction (LIM 2405 human CRC cells; PBR06 in combination with C225, even the lowest dosages of C225): significant induction of p21
pERK levels (LIM 2405 human CRC cells; [8]): elevated levels of pERK

k6 (TSPO [4]; 3-tissue model, tumor, mean, listed as VUIIS1008): near-zero K6 in the tumor
fold higher binding affinity compared with DPA-714 and PBR06 (TSPO [2]; C6 cell lysate, against [3H]PK11195): 30 fold
IC50 (TSPO [2]; [7]): ~1 nM
IC50 fold lower than PBR06 or DPA-714 (TSPO [2]; against 3H-PK 11195 in tumor lysate): approximately 10 fold
binding affinity (in words) (TSPO [2]; listed as VUIIS1008): sub-nanomolar binding affinity
SMILES: CCc1cc(CC)n2nc(-c3ccc(OCCF)cc3)c(CC(=O)N(CC)CC)c2n1 [VUIIS-1008]
binding affinity in heavy (nuclei) and light (mitochondria) fractions (in words) (TSPO [1]): comparable high binding affinity of VUIIS1008 in both two fractions
affinity for nuclear TSPO (in words) (nuclear TSPO): nanomolar binding affinity; also recorded: targets nuclear TSPO

SMILES: COc1ccc(OC)c(CN(C(=O)CF)c2ccccc2Sc2ccccc2)c1 [[^18F]VUIIS-0005]
in vivo uptake distribution (in words) (TSPO [5]): primarily confined to tumor tissue, with significantly less normal brain uptake compared to ^18F-PBR06
binding affinity (in words) (TSPO [2]): improved binding affinity in tumor lysate compared to PBR06 or DPA-714

tracer uptake in colon (in words) (TSPO [6]; wild type mice): low tracer uptake in the colon
K1 (TSPO [4]; 1-tissue model, brain, mean): 0.3161 mL/g/min
k2 (TSPO [4]; 1-tissue model, brain, mean): 0.3048 min⁻¹
VT (calculated) (TSPO [4]; 1-tissue model, brain): 1.3 ± 0.2
K1 (TSPO [4]; [9]): 0.3535 mL/g/min
k2 (TSPO [4]; [9]): 0.0964 min⁻¹
VT (calculated) (TSPO [4]; 1-tissue model, tumor): 3.6 ± 0.6
K1 (TSPO [4]; 2-tissue model, brain, mean): 0.5856 mL/g/min
k2 (TSPO [4]; 2-tissue model, brain, mean): 2.0217 min⁻¹
k3 (TSPO [4]; 2-tissue model, brain, mean): 0.2903 min⁻¹
k4 (TSPO [4]; 2-tissue model, brain, mean): 0.0912 min⁻¹
VT (calculated) (TSPO [4]; 2-tissue model, brain): 1.7 ± 0.4
K1 (TSPO [4]; 2-tissue model, tumor, mean): 0.5448 mL/g/min
k2 (TSPO [4]; 2-tissue model, tumor, mean): 1.2413 min⁻¹
k3 (TSPO [4]; 2-tissue model, tumor, mean): 0.1300 min⁻¹
k4 (TSPO [4]; 2-tissue model, tumor, mean): 0.0234 min⁻¹
VT (calculated) (TSPO [4]; 2-tissue model, tumor): 4.6 ± 0.8
K1 (TSPO [4]; 3-tissue model, brain, mean): 0.6925 mL/g/min
k2 (TSPO [4]; 3-tissue model, brain, mean): 3.7619 min⁻¹
k3 (TSPO [4]; 3-tissue model, brain, mean): 0.8194 min⁻¹
k4 (TSPO [4]; 3-tissue model, brain, mean): 0.2569 min⁻¹
k5 (TSPO [4]; 3-tissue model, brain, mean): 0.5314 min⁻¹
k6 (TSPO [4]; 3-tissue model, brain, mean): 0.1748 min⁻¹
VT (calculated) (TSPO [4]; 3-tissue model, brain): 1.4 ± 0.2
K1 (TSPO [4]; 3-tissue model, tumor, mean): 0.6449 mL/g/min
k2 (TSPO [4]; 3-tissue model, tumor, mean): 2.9459 min⁻¹
k3 (TSPO [4]; 3-tissue model, tumor, mean): 0.4597 min⁻¹
k4 (TSPO [4]; 3-tissue model, tumor, mean): 0.1371 min⁻¹
k5 (TSPO [4]; 3-tissue model, tumor, mean): 0.2304 min⁻¹
VT (calculated) (TSPO [4]; 3-tissue model, tumor): 6.4 ± 1.8
k6 (TSPO [4]; 3-tissue model, tumor, mean, listed as [18F]VUIIS1008): 0.0574 min⁻¹
increase in tracer levels in plasma on displacement with 'cold' VUIIS-1008 (TSPO [4]; in vivo displacement): 25 fold
binding affinity (TSPO [2]): ~1 nM
SMILES: CCc1cc(CC)n2nc(-c3ccc(OCCF)cc3)c(CC(=O)N(CC)CC)c2n1 [[^18F]VUIIS-1008]
tracer uptake in distal colon (in words) (TSPO [6]; Lrig1-CreERT2;Apcfl/+ mice with colonoscopy confirmed tumors): increased, focal uptake in the distal colon compared to adjacent non-tumor tissue and wild type controls
stability in plasma, HPLC radiometabolite assay (in words) (TSPO [4]; 90 min dynamic PET scan): high stability of this probe in the 90 min dynamic PET scan
tracer distribution tumor vs normal brain (in words) (TSPO [4]): robust tumor uptake, yet very little normal brain uptake
tracer distribution tumor vs normal brain (in words) (TSPO [4]; listed as 18F-VUIIS1008): most of the uptake in the brain was localized to the tumor, with only modest accumulation in the adjacent, normal brain
clearance and accumulation compared with 18F-DPA714 (in words) (TSPO [4]; glioma-bearing rats): a similar clearance and accumulation in brain, while a faster clearance and a slower accumulation in tumor
displacement from the tumor by 'cold' VUIIS-1008 (in words) (TSPO [4]; in vivo displacement): no detectable displacement from the tumor
binding affinity (in words) (TSPO [2]): improved binding affinity in tumor lysate compared to PBR06 or DPA-714
